Here are results for eight compounds from patent US8486885B2, “β-arrestin effectors and compositions and methods of use thereof” (Trevena, Inc., priority 2008, dated 2013).

What all share (format): cell-based
Assay [1] addresses human angiotensin 2 type 1 receptor (human AT1R) (Homo sapiens, UniProt P30556). Nature of the assay: PathHunter β-arrestin-2 recruitment assay, human AT1R. The settings on record: PathHunter β-arrestin HEK293 cells; for EC50: read-out: human AT1R b-arrestin2 EC50. Here is the method:
(§1) The proximal event in β-arrestin function mediated by GPCRs is recruitment to receptors following ligand binding and receptor phosphorylation by GRK's. Thus, the measure of β-arrestin recruitment was used to determine ligand efficacy for β-arrestin function.
(§2) B-arrestin-2 recruitment to the human and rat angiotensin 2 type 1 receptor (human AT1R and rat AT1aR, respectively) was measured with the PathHunter™ β-arrestin assay (DiscoveRx Corporation, Fremont Calif.). Cells, plasmid(s), and detection reagent(s) were purchased from DiscoveRx, and assays were performed per manufacturer's instructions. Human AT1R and rat AT1aR were cloned into the pCMV-ProLink vector, verified by sequencing, and transfected into PathHunter β-arrestin HEK293 cells. Stably transfected clonal cell lines were selected with Hygromycin and G418. These clonal cell lines were used for all experiments.
(§3) For assays, 25,000 cells were seeded per well in 96-well microplates in volumes of 90 μL and allowed to grow overnight at 37° C. in 5% CO2. Peptides of the invention were dissolved in deionized water to a concentration of 1 mM. Peptides were then further diluted in assay buffer (Hank's balanced salt solution with 20 mM HEPES) to add peptide to the cells to reach final concentrations ranging from 10 μM to 1 pM. Cells were then incubated for 60 minutes at 37° C. in 5% CO2, followed by addition of 50 μL of PathHunter Detection Reagent to each well. The microplates were then incubated at room temperature for 60 minutes, and then luminescence was measured using a NOVOstar microplate reader purchased from BMG Labtech. B-arrestin-2 recruitment to receptors was measured as relative luminescence intensity expressed in arbitrary units.
Target sequence in this assay (P32121 whole entry partner, one chain of several): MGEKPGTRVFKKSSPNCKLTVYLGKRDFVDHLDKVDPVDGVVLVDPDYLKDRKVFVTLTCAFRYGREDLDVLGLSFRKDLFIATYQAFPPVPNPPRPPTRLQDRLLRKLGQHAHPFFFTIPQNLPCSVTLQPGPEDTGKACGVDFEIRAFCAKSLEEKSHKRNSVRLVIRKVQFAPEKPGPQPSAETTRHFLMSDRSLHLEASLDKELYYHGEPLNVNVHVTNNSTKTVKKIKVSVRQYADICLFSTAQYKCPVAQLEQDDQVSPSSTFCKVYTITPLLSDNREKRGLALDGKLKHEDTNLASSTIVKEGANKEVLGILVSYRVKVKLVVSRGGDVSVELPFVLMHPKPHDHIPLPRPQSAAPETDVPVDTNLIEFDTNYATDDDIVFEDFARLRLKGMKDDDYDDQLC

Assay [2] has as its target rat angiotensin 2 type 1 receptor (rat AT1aR) (Rattus norvegicus, UniProt P25095). Nature of the assay: PathHunter β-arrestin-2 recruitment assay, rat AT1aR. The settings on record: PathHunter β-arrestin HEK293 cells; for EC50: read-out: rat AT1aR b-arrestin2 EC50. Here is the method:
as §1, §2, §3
Target sequence in this assay (P32121 whole entry partner, one chain of several): as above

For assay [3], the target named is T1, human angiotensin 2 type 1 receptor (human AT1R) (Homo sapiens, UniProt P30556).
T1 construct: expressed in transfected cells
T1 sequence (P30556 1-359): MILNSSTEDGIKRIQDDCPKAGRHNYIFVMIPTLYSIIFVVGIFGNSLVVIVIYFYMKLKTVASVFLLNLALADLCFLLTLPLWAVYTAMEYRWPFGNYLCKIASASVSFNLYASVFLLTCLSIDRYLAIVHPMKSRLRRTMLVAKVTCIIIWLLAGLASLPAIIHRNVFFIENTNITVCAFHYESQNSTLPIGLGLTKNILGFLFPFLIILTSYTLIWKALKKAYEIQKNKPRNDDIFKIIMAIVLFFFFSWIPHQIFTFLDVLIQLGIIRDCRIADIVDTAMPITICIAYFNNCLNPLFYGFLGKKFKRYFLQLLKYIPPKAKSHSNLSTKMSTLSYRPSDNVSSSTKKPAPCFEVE
Nature of the assay: IP1 accumulation assay (IP-One Tb), human AT1R. Conditions: cells expressing human AT1R. Here is the method:
(§4) A secondary measure of G protein coupling efficacy was also performed. IP3 is generated by activation of phospholipase C by Gα-q. IP3 is degraded to IP1, which can be forced to accumulate in cells by blocking degradation with lithium chloride. Thus we measured accumulation of IP1 to determine ligand efficacy for G protein activation.
(§5) IP1 accumulation generated by human and rat angiotensin 2 type 1 receptor (human AT1R and rat AT1aR, respectively) was measured with IP-One Tb kits purchased from Cisbio and used per the manufacturer's instructions. Clonal stably transfected cell lines expressing human AT1TR or rat AT1aR were used for all experiments.
(§6) For assays, 4,000 cells were seeded per well in 384-well small-volume microplates in volumes of 20 uL and allowed to grow overnight at 37° C. in 5% CO2. Cell growth media was then replaced with stimulation buffer supplied by Cisbio containing 50 mM lithium chloride. Peptides TRV-120,001 through TRV-120,035 were dissolved in deionized water to a concentration of 1 mM. For agonist detection, peptides were then further diluted in stimulation buffer to add peptide to the cells to reach final concentrations ranging from 10 uM to 1 pM. […] Following addition of peptides, cells were incubated at 37° C. in 5% CO2 for 30 minutes and then lysed with detection reagents added per manufacturer's instructions.

Assay [4] deals with T2, rat angiotensin 2 type 1 receptor (rat AT1aR) (Rattus norvegicus, UniProt P25095).
T2 construct: expressed in transfected cells
T2 sequence (P25095 1-359): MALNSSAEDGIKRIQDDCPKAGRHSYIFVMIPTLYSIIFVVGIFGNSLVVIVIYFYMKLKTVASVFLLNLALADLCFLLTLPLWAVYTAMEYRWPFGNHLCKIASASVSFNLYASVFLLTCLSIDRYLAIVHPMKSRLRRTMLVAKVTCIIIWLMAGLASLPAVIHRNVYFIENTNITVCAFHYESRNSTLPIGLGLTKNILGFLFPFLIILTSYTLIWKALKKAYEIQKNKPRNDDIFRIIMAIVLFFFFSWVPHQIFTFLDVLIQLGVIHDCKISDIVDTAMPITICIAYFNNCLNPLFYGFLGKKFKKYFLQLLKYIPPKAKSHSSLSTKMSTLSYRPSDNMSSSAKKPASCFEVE
Nature of the assay: IP1 accumulation assay (IP-One Tb), rat AT1aR. The settings on record: cells expressing rat AT1aR. As for the experimental part:
as §4, §5, §6

Non-standard residues stand in square brackets, D forms with d. Residues, ends and D or L forms follow the SMILES beside them. Sar = CNCC(=O)O

For the compound `CC[C@H](C)[C@H](NC(=O)[C@H](Cc1ccc(O)cc1)NC(=O)[C@@H](NC(=O)[C@H](CCCNC(=N)N)NC(=O)CNC)C(C)C)C(=O)N[C@@H](Cc1c[nH]cn1)C(=O)N1CCC[C@@H]1C(N)=O` [SEQ ID NO:51, Sar-Arg-Val-Tyr-Ile-His-D-Pro-NH2], in assay [1], the “human AT1R b-arrestin2 Max (%)” value is reported as 20.2% and the EC50 worked out at 330 nM. The “rat AT1aR b-arrestin2 Max (%)” value in assay [2] is 5.8%. Further, in assay [3], the “human AT1R IP One EC50 (M)” value is “inactive”. The “rat AT1aR IP One EC50 (M)” value in assay [4] is on record as “Inactive”.
The corresponding values for `CNCC(=O)N[C@@H](CCCNC(=N)N)C(=O)N[C@H](C(=O)N[C@@H](Cc1ccc(O)cc1)C(=O)N[C@@H](Cc1ccccc1)C(=O)N[C@@H](Cc1c[nH]cn1)C(=O)N1CCC[C@H]1C(N)=O)C(C)C` [SEQ ID NO:41, Sar-Arg-Val-Tyr-Phe-His-Pro-NH2] are 30.1%, 1600 nM, 53.1%, “inactive” and “Inactive”.
Take `CNCC(=O)N[C@@H](CCCNC(=N)N)C(=O)N[C@H](C(=O)N[C@@H](Cc1ccc(O)cc1)C(=O)N[C@@H](CCC(=O)O)C(=O)N[C@@H](Cc1c[nH]cn1)C(=O)N1CCC[C@H]1C(N)=O)C(C)C` [SEQ ID NO:40, Sar-Arg-Val-Tyr-Glu-His-Pro-NH2] (H-[Sar]RVYEHP-NH2; N-terminus assumed): in assay [1], the “human AT1R b-arrestin2 Max (%)” value worked out at 53.2%. Besides, in assay [2], the “rat AT1aR b-arrestin2 Max (%)” value is 87.9% and the EC50 was 31 nM. In addition, the “human AT1R IP One EC50 (M)” value in assay [3] is “inactive”. For the same compound, the “rat AT1aR IP One EC50 (M)” value in assay [4] is “Inactive”.
In the case of `CC[C@H](C)[C@H](NC(=O)[C@H](Cc1ccc(O)cc1)NC(=O)[C@@H](NC(=O)[C@H](CCCNC(=N)N)NC(=O)CNC)C(C)C)C(=O)N[C@@H](CCCCN)C(=O)N1CCC[C@H]1C(=O)N[C@H](C)C(=O)O` [SEQ ID NO:50, Sar-Arg-Val-Tyr-Ile-Lys-Pro-D-Ala-OH] (H-[Sar]RVYIKP[dA]-OH; N-terminus assumed), in assay [1], the “human AT1R b-arrestin2 Max (%)” value is 56.8% and the concentration for a half-maximal effect (EC50) amounted to 680 nM. Moreover, in assay [2], the “rat AT1aR b-arrestin2 Max (%)” value was 85.6% and the EC50 is 270 nM. Also, in assay [3], the “human AT1R IP One EC50 (M)” value is “inactive”. Also, the “rat AT1aR IP One EC50 (M)” value in assay [4] was “Inactive”.
Regarding `CNCC(=O)N[C@@H](CCCNC(=N)N)C(=O)N[C@H](C(=O)N[C@@H](Cc1ccc(O)cc1)C(=O)N[C@@H](CCCCN)C(=O)N[C@@H](Cc1c[nH]cn1)C(=O)N1CCC[C@H]1C(N)=O)C(C)C` [SEQ ID NO:43, Sar-Arg-Val-Tyr-Lys-His-Pro-NH2] (H-[Sar]RVYKHP-NH2), the “human AT1R b-arrestin2 Max (%)” value in assay [1] was 42.7%. Further, the “rat AT1aR b-arrestin2 Max (%)” value in assay [2] is recorded as 64.8%. Moreover, the “human AT1R IP One EC50 (M)” value in assay [3] is “inactive”. Besides, in assay [4], the EC50 worked out at 260 nM and the “rat AT1aR IP One Max (%)” value was 17.9%.
Regarding `CC[C@H](C)[C@H](NC(=O)[C@H](Cc1ccc(O)cc1)NC(=O)[C@@H](NC(=O)[C@H](CCCNC(=N)N)NC(=O)[C@@H](N)CC(=O)O)C(C)C)C(=O)N[C@@H](Cc1c[nH]cn1)C(=O)N1CCC[C@H]1C(=O)NCC(=O)O` [SEQ ID NO:56] (H-DRVYIHPG-OH; N-terminus assumed), in assay [1], the “human AT1R b-arrestin2 Max (%)” value turned out to be 104.4%. In assay [2], the “rat AT1aR b-arrestin2 Max (%)” value stood at 98.5% and the EC50 worked out at 160 nM. In addition, the “human AT1R IP One Max (%)” value in assay [3] stood at 96.5%. Besides, in assay [4], the “rat AT1aR IP One Max (%)” value is listed as 98.4%.
Take `CNCC(=O)N[C@@H](CCCNC(=N)N)C(=O)N[C@H](C(=O)N[C@@H](Cc1ccc(O)cc1)C(=O)N[C@@H](CCCNC(=N)N)C(=O)N[C@@H](Cc1c[nH]cn1)C(=O)N1CCC[C@H]1C(N)=O)C(C)C` [SEQ ID NO:45, Sar-Arg-Val-Tyr-Arg-His-Pro-NH2] (H-[Sar]RVYRHP-NH2; N-terminus assumed): the “human AT1R b-arrestin2 Max (%)” value in assay [1] is recorded as 53.3%. For the same compound, in assay [2], the “rat AT1aR b-arrestin2 Max (%)” value is reported as 91.7% and the EC50 worked out at 27 nM. Moreover, the “human AT1R IP One EC50 (M)” value in assay [3] is “inactive”. In addition, the “rat AT1aR IP One Max (%)” value in assay [4] is on record as 10.2%.
In the case of `CNCC(=O)N[C@@H](CCCNC(=N)N)C(=O)N[C@H](C(=O)N[C@@H](Cc1ccc(O)cc1)C(=O)N[C@@H](Cc1c[nH]cn1)C(=O)N[C@@H](Cc1c[nH]cn1)C(=O)N1CCC[C@H]1C(N)=O)C(C)C` [SEQ ID NO:42, Sar-Arg-Val-Tyr-His-His-Pro-NH2] (H-[Sar]RVYHHP-NH2; N-terminus assumed), in assay [1], the “human AT1R b-arrestin2 Max (%)” value was determined as 46.4% and the 50% effective concentration (EC50) was found to be 630 nM. In addition, in assay [2], the “rat AT1aR b-arrestin2 Max (%)” value is reported as 74.9% and the half-maximal effective concentration (EC50) stood at 270 nM. Besides, the “human AT1R IP One EC50 (M)” value in assay [3] was “inactive”. In addition, the “rat AT1aR IP One EC50 (M)” value in assay [4] is reported as “Inactive”.
